The record followed here is ChEMBL document CHEMBL1201862, “PubChem BioAssay data set” (2004).

Some test systems named below: 786-0; A549; BT-549; CCRF-CEM; COLO 205; HCT-116; IGROV-1; K562; KM12; MOLT-4; OVCAR-3; OVCAR-4; SF-268; SK-MEL-28; SNB-19; U-251; UO-31; HOP-62; LOX IMVI; A498.
Assay in all cases: NCI tumour cell line growth inhibition, 48 h

Structures are written as SMILES.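 Tested at 5 concentrations; 48 h exposure; 96-well plates; endpoints linearly interpolated, else capped at highest concentration. Here, GI50 denotes the concentration required for 50% inhibition of growth.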 Activity calls are given as the source filed them. No stated cut-off is given here; in the data, active = GI50 up to about 1.1 µM and inactive = higher.

Turning to `Nc1ccc2nc3n(c2c1)C(=O)c1ccccc1-3`, the GI50 in the test with 786-0, in the test with A549, with BT-549, in the test with CCRF-CEM, in the test on COLO 205 and in the test on HCT-116 was > 100 µM (inactive) in each case. In addition, the GI50 in the test with IGROV-1, in the test on K562, in the test with KM12, in the test on MOLT-4, with OVCAR-3 and with OVCAR-4 was > 100 µM (inactive) each time. Also, the GI50 in the test on SF-268, with SK-MEL-28, in the test with SNB-19, in the test with U-251 and in the test on UO-31 was > 100 µM (inactive) throughout.

On to `CC(=O)OC1CC2(C)C(OC(C)=O)CC1C2(C)C` (configuration not stated), for which the GI50 in the test with 786-0, with A549, in the test with BT-549, with CCRF-CEM, in the test with COLO 205 and with HCT-116 was > 100 µM (inactive) each time. The GI50 in the test with HOP-62, in the test with IGROV-1, in the test with K562, in the test on KM12, in the test on LOX IMVI and in the test with MOLT-4 was > 100 µM (inactive) throughout. Besides, the GI50 in the test on OVCAR-3, in the test with OVCAR-4, in the test on SF-268, in the test with SK-MEL-28, in the test with SNB-19 and in the test with U-251 was > 100 µM (inactive) in each case. In addition, the GI50 in the test on UO-31 was > 100 µM (inactive).

As for `CC(=O)O[C@H]1[C@@H]2[C@@H]3[C@@H](C[C@H]1C)[C@@H](C)CO[C@@]1(C)CC/C=C(/C)C[C@@H]2O[C@@H]31`, the GI50 in the test with 786-0, in the test with A498, in the test on A549, in the test on CCRF-CEM, in the test with COLO 205 and in the test with HCT-116 was > 100 µM (inactive) each time. Besides, the GI50 in the test with HOP-62, in the test with IGROV-1, with K562, with KM12, in the test with LOX IMVI and with MOLT-4 was > 100 µM (inactive) in each case. In addition, the GI50 with OVCAR-3, in the test on OVCAR-4, with SF-268, in the test on SK-MEL-28, in the test with SNB-19 and with U-251 was > 100 µM (inactive) throughout. For the same molecule, the GI50 in the test with UO-31 is > 100 µM (inactive).

Turning to `O=C(OC[C@H]1C[C@H]2C(=O)CCC[C@H]2O1)c1ccccc1`, the GI50 in the test on 786-0, in the test on A498, with A549, with CCRF-CEM, in the test on COLO 205 and in the test on HCT-116 was > 100 µM (inactive) in each case. In addition, the GI50 in the test with HOP-62, in the test with IGROV-1, in the test on K562, in the test with KM12, in the test on LOX IMVI and in the test with MOLT-4 was > 100 µM (inactive) each time. Further, the GI50 in the test on OVCAR-3, in the test with OVCAR-4, with SF-268, in the test with SK-MEL-28, with SNB-19 and in the test on U-251 was > 100 µM (inactive) throughout. Moreover, the GI50 in the test on UO-31 is > 100 µM (inactive).

As for `O=C1NC(Cc2ccc(O)cc2)C(=O)N2CCCC12` (configuration not stated), the GI50 in the test with 786-0, in the test with A498, with A549, in the test with CCRF-CEM, in the test with COLO 205 and in the test on HCT-116 was > 100 µM (inactive) each time. Moreover, the GI50 in the test on HOP-62, with IGROV-1, in the test with K562, in the test on KM12, in the test on LOX IMVI and with MOLT-4 was > 100 µM (inactive) each time. Also, the GI50 in the test on OVCAR-3, with OVCAR-4, in the test with SF-268, with SK-MEL-28, in the test with SNB-19 and with U-251 was > 100 µM (inactive) throughout. In the test on UO-31, the GI50 is > 100 µM (inactive).

As to `CCOC(=O)C(NC(=O)c1ccccc1)(c1ccc(S(=O)(=O)Nc2onc(C)c2C)cc1)C(F)(F)F` (configuration not stated), the GI50 in the test with 786-0, in the test with A549, with BT-549, in the test on CCRF-CEM, with COLO 205 and with HCT-116 was > 100 µM (inactive) each time. The GI50 in the test with HOP-62, in the test on IGROV-1, with K562, with KM12, in the test on LOX IMVI and with MOLT-4 was > 100 µM (inactive) throughout. In addition, the GI50 with OVCAR-3, in the test with OVCAR-4, in the test with SF-268, in the test on SK-MEL-28, in the test on SNB-19 and with U-251 was > 100 µM (inactive) throughout. Besides, the GI50 in the test with UO-31 is > 100 µM (inactive).

`Cc1cc(C)nc(NS(=O)(=O)c2ccc(NNC(=O)c3cccc4c(=O)c5ccccc5[nH]c34)cc2)n1`: the GI50 was > 100 µM (inactive) with 786-0; > 100 µM (inactive) in the test on A549; 53.5 µM (inactive) in the test on BT-549; 35.4 µM (inactive) with CCRF-CEM; > 100 µM (inactive) in the test with COLO 205; 48.9 µM (inactive) in the test on HCT-116. Also, the GI50 with HOP-62 is 71.8 µM (inactive); in the test with IGROV-1, 36.7 µM (inactive); in the test with K562 it was 41 µM (inactive); with KM12, 39.5 µM (inactive); in the test on LOX IMVI, 36 µM (inactive); in the test on MOLT-4, 49.8 µM (inactive). In addition, the GI50 with OVCAR-3 is 37.3 µM (inactive); in the test on OVCAR-4, 72.3 µM (inactive); in the test on SF-268, 43.2 µM (inactive); with SK-MEL-28, 29.2 µM (inactive); in the test on SNB-19 it was 88.5 µM (inactive); in the test with U-251, 25.2 µM (inactive). In the test with UO-31, the GI50 is 41.6 µM (inactive).

With `COc1ccc(-n2sc3ncccc3c2=O)cc1`, the GI50 with 786-0 is 15.9 µM (inactive); in the test with A549 it was 69.5 µM (inactive); with BT-549, 20.4 µM (inactive); with CCRF-CEM, 8.32 µM (inactive); with COLO 205 it was 16.9 µM (inactive); with HCT-116 it was 17.7 µM (inactive). The GI50 in the test with HOP-62 is 23.1 µM (inactive); in the test with IGROV-1, 23.6 µM (inactive); with KM12, 19.1 µM (inactive); with LOX IMVI it was 30.8 µM (inactive); with MOLT-4, 8.18 µM (inactive); in the test with OVCAR-3, 23 µM (inactive). The GI50 in the test with OVCAR-4 was > 100 µM (inactive); in the test on SF-268, 24.7 µM (inactive); with SK-MEL-28, 23.6 µM (inactive); in the test with SNB-19, > 100 µM (inactive); in the test with U-251, 23.1 µM (inactive); with UO-31, 19.1 µM (inactive).

For `CCCCCCCCC[C@@H]1CC(=O)OCC2OC(O[C@H](CCCCCCCCC)CC(=O)OCC3OC(O[C@H](CCCCCCCCC)CC(=O)OCC4OC(O1)C(O)C(O)C4O)C(O)C(O)C3O)C(O)C(O)C2O` (some centres not stated), the GI50 is 0.957 µM (active) in the test with 786-0; 14.5 µM (inactive) in the test on A498; 14.7 µM (inactive) in the test on A549; 5.79 µM (inactive) in the test on CCRF-CEM; 2.52 µM (inactive) in the test with COLO 205; 8.18 µM (inactive) in the test with HCT-116. Also, the GI50 was 12.3 µM (inactive) in the test with HOP-62; 14.5 µM (inactive) with IGROV-1; 3.47 µM (inactive) in the test with K562; 6.5 µM (inactive) in the test on KM12; 3.52 µM (inactive) in the test on LOX IMVI; 6.22 µM (inactive) in the test with MOLT-4. In addition, the GI50 was 18 µM (inactive) in the test with OVCAR-3; 18.2 µM (inactive) in the test on OVCAR-4; 2.94 µM (inactive) with SF-268; 6.62 µM (inactive) with SK-MEL-28; 8.89 µM (inactive) in the test with SNB-19; 8.28 µM (inactive) in the test on U-251. For the same molecule, the GI50 in the test on UO-31 is 9.4 µM (inactive).

With `COc1cccc2c1OC(c1ccc(Cl)cc1)C([N+](=O)[O-])=C2` (configuration not stated), the GI50 in the test with 786-0 was 1.84 µM (inactive); in the test on A549, 9.82 µM (inactive); in the test with BT-549, 1.24 µM (inactive); with CCRF-CEM, 0.356 µM (active); in the test with COLO 205 it was 2.19 µM (inactive); in the test on HCT-116, 1.35 µM (inactive). Besides, the GI50 in the test on HOP-62 was 2.1 µM (inactive); in the test with IGROV-1, 2.25 µM (inactive); in the test with K562 it was 0.411 µM (active); in the test with KM12, 2.08 µM (inactive); with LOX IMVI, 1.2 µM (inactive); with MOLT-4, 1.49 µM (inactive). Also, the GI50 with OVCAR-3 was 2.54 µM (inactive); with OVCAR-4, 2.17 µM (inactive); with SF-268, 3.18 µM (inactive); in the test on SK-MEL-28 it was 2.61 µM (inactive); with SNB-19, 4.28 µM (inactive); with U-251, 2.38 µM (inactive). In the test with UO-31, the GI50 is 1.77 µM (inactive).
